Earlier results on one molecule are cited in patent US20190078102A1, “BIOSYNTHETIC PRODUCTION OF STEVIOL GLYCOSIDES AND PROCESSES THEREFORE” (Conagen-Inc., priority 2017, published 2019).

For this series the following is noted: background statement.

For `C=C1C[C@@]23CC[C@H]4[C@@](C)(CCC[C@@]4(C)C(=O)O[C@@H]4O[C@H](CO)[C@@H](O)[C@H](O)[C@H]4O)[C@@H]2CC[C@]1(O[C@@H]1O[C@H](CO)[C@@H](O)[C@H](O)[C@H]1O[C@@H]1O[C@H](CO)[C@@H](O)[C@H](O)[C@H]1O)C3` [stevioside], the “times sweeter than sucrose” value was 100-150 times.
